Test [1] concerns Sitophilus oryzae. In kind it is in vivo. The method, then: (§1) Reduction in feeding activity elicited by the experimental samples was compared to food consumption of untreated controls, obtained by weighing the disks before and after exposure to insects and expressed as percent feeding relative to the control. Bioassay can also include insecticidal measurements (lethality with rice weevil).
(§2) Flour disks (ca. 0.1 g/disk) were weighed before and after exposure to the insects. […] Antifeedant activity was determined by expressing consumption of treated disks as a percentage of control disks (70% ethanol). Positive controls using the same C8 extract were run with each bioassay.
Probit analysis (Polo-PC, LeOra Software, Berkeley, Calif., U.S.A.) was used to estimate the concentrations required to kill 50 and 90% of the population after seven days. For the experiments that used a single dose, the mean survival time was estimated using Kaplan-Meier survival analysis (SigmaStat 3.0, SPSS Inc, Chicago, Ill., U.S.A.).

Test [2] concerns the target calcium-dependent potassium channels (Homo sapiens, UniProt Q12791). The following applies: mammalian in vitro experiments (McManus et al.); cited from earlier work.
Test [3] concerns Sitophilus oryzae. The test is described as follows: Flour disk antifeedant bioassay with rice weevils (food consumption as % of control; EC50/EC90 for feeding reduction). In kind it is in vivo. The following applies: for food consumption, peptide to saponin treatment ratio 9:1 (values in brackets) / food consumption, peptide to saponin treatment ratio 1:1 / food consumption, peptide to saponin treatment ratio 9:1: total dose 1.6 mg/200 mg of flour (D-I: 0.8 mg/100 mg); for food consumption, peptide to saponin treatment ratio 1:1 / food consumption, peptide to saponin treatment ratio 9:1 / food consumption, peptide to saponin treatment ratio 1:9: peptide source AIEX YM3; for synergy with pea peptides (in words): single dose tests, pea peptide to saponin treatment ratios of 9:1, 1:1 and 1:9; for food consumption, initial treatment: Table 20, saponin alone; for antifeedant activity (in words): rice weevil flour disk bioassay. The method, then: The bioactivity of separated fractions was determined primarily by a flour disk antifeedant bioassay with the rice weevil (Sitophilus oryzae), an insect pest of stored products.
A glass column (1.2 cm internal diameter×20.5 cm length) equipped with a solvent reservoir and stopcock was filled with silica gel (Mallinckrodt SilicAR cc-7) using a slurry of the silica gel in chloroform (Merck OmniSolv containing 1% ethanol). The top of the bed was protected with sea sand. C8 powder (130 mg) was applied to the column, after mixing with silica gel, as a 1.25 cm band. Using a slight positive air pressure to maintain reasonable flow rates, the column was eluted with chloroform (75 ml) then with 75 ml volumes of various mixtures of chloroform and methanol followed by pure methanol (Table 1). The column was eluted with more methanol (75 ml) and finally with two additional volumes of methanol (250 ml each). […] A final evaporation was performed with a Savant apparatus (43° C.). The tubes were re-weighed, capped and transferred to the bioassay laboratory. Each sample was dissolved in 70% ethanol (0.5 ml) and 0.2 ml of that solution was added to the wheat flour (200 mg) for preparation of the disks. […] Control disks were prepared with 0.2 ml of 70% ethanol.
A test insecticidal compound is incorporated into flour disks. […] A typical dose in many of the above examples is 1.6 milligram/200 milligram flour. Wheat flour is typically used.
as §1, §2
The estimate and confidence limits are the values of X where the line Y=Yo crosses the regression line and its upper and lower confidence curves, respectively. The formulae can be expressed in terms of outputs from the regression analysis. Let a and b be the estimates of the intercept and slope, MSE the mean square error, n the number of observations, t the (2-sided) critical value of t with n−2 degrees of freedom, V(b) the variance (standard error squared) of b and D=b^2−t^2V(b)). Then the estimate of X is Xo=(Yo−a)/b and the confidence limits for X are X0+t^2V(b)(Y0− Y)/bD±H where H^2=t^2└D·MSE/n+V(b)(Y0− Y)^2┘/D^2. The interval is not symmetric about Xo. […]

Setting [4] is: saponin:peptide ratio 1:0, 0.6% used in this test.
Where [5] appears, read: saponin:peptide ratio 1:0, 0.8%, Kaplan-Meier.
Where [6] appears, read: C8 material as peptide source, total dose 1.6 mg/200 mg of flour.
The mark [7] stands for this setting: total dose 1.6 mg/200 mg of flour.
Setting [8] is: saponin:peptide ratio 1:0 (saponin or soap alone), concentration 0.8%.

Values joined by “and” are separate entries in the source; they are usually repeats but may differ in a detail not shown here. Equal entries are not always repeated. “Also recorded” adds a separate entry of the source. Where two headings read alike, the source gives them in different places.

Sequence of calcium-dependent potassium channels (Q12791 whole entry): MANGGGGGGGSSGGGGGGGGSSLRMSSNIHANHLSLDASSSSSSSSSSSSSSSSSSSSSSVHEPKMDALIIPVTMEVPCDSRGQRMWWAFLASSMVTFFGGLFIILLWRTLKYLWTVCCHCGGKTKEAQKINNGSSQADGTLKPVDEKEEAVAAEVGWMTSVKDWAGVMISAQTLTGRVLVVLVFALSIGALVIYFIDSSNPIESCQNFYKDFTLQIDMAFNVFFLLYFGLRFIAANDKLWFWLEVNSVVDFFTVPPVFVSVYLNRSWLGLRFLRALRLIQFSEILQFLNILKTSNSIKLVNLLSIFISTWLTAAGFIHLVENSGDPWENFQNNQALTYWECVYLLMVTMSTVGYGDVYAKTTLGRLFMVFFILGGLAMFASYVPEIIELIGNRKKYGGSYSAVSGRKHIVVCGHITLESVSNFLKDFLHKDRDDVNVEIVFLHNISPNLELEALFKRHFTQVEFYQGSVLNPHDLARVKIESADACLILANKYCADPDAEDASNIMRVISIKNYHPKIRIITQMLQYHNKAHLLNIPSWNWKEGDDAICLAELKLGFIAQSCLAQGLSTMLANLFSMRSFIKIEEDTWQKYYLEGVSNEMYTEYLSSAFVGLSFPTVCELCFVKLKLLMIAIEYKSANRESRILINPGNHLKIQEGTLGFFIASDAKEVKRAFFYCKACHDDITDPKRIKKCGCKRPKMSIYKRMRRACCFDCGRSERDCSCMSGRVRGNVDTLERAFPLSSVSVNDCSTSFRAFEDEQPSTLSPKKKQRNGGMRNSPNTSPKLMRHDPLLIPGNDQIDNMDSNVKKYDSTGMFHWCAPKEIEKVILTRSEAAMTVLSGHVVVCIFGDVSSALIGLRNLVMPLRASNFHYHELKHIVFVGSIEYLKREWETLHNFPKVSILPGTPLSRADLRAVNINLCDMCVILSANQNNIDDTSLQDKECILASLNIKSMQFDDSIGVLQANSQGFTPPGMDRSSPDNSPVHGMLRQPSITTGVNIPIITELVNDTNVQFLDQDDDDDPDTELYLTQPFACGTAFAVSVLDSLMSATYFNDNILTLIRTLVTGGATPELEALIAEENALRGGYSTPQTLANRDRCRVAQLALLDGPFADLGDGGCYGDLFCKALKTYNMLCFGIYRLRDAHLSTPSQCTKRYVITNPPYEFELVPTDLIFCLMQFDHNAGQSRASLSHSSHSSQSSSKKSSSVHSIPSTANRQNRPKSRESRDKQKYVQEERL
Sequence of calcium-dependent potassium channels (Q16558 whole entry partner): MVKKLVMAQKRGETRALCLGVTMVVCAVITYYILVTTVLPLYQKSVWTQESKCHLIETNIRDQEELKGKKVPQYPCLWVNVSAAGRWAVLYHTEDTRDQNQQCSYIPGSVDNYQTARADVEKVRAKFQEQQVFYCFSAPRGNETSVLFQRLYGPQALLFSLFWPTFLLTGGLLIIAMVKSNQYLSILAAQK

As for `C[C@@H]1O[C@@H](O[C@H]2[C@H](O[C@H]3[C@H](O[C@H]4CC[C@@]5(C)[C@@H](CC[C@]6(C)[C@@H]5CC=C5[C@@H]7CC(C)(C)CC(=O)[C@]7(C)CC[C@]56C)[C@@]4(C)CO)O[C@H](C(=O)O)[C@@H](O)[C@@H]3O)O[C@H](CO)[C@H](O)[C@@H]2O)[C@H](O)[C@H](O)[C@H]1O` [Dehydrosoyasaponin I, dehydrosoyasaponin I], in the test on Sitophilus oryzae [1] (setting [4]), the “Mean survival time (days ± SE)” value is 13.8 ± 0.2 a days. In addition, in test [2], the “action on calcium-dependent potassium channels (in words)” value is on record as “high-affinity activator” and the “potency as a potassium channel opener relative to S-I” value is 60 fold. Also, the “food consumption, peptide to saponin treatment ratio 9:1 (values in brackets)” value in the test with Sitophilus oryzae [3] (C8 material as peptide source) is on record as “(17) % of control”. In addition, in the test with Sitophilus oryzae [3] (RPC isolate, […]100 mg of flour (equivalent to 1.28 mg/200 mg)), the “food consumption in the rice weevil bioassay” value was found to be 65%. For the same compound, in the test with Sitophilus oryzae [3], the “food consumption, peptide to saponin treatment ratio 1:1” value was 34 % of control; the “food consumption, peptide to saponin treatment ratio 9:1” value is listed as 32 % of control; the “synergy with pea peptides (in words)” value is listed as “clearly synergistic”. In the test on Sitophilus oryzae [3] (setting [4]), the “Feeding as a percent of control (%)” value is reported as 65%.

Take β-escin: the “Mean survival time (days ± SE)” value with Sitophilus oryzae [1] (setting [5]) is on record as 6.3 ± 0.2 a days. For the same compound, in the test with Sitophilus oryzae [1] (saponin:peptide ratio 1:0, held three days on treated wafers, at 7 days), the “LD90 (%)” value worked out at 1.74%. Moreover, in the test on Sitophilus oryzae [3] (setting [6]), the “food consumption, peptide to saponin treatment ratio 1:1 (values in brackets)” value is given as “(15) % of control” and the “food consumption, peptide to saponin treatment ratio 1:9 (values in brackets)” value is given as “(16) % of control”. For the same compound, in the test with Sitophilus oryzae [3] (C8 material as peptide source), the “food consumption, peptide to saponin treatment ratio 9:1 (values in brackets)” value is given as “(14) % of control”. In addition, in the test with Sitophilus oryzae [3] (setting [7]), the “food consumption, peptide to saponin treatment ratio 1:9” value is recorded as 18 % of control. Moreover, in the test with Sitophilus oryzae [3], the “food consumption, peptide to saponin treatment ratio 1:1” value is recorded as 17 % of control and the “food consumption, peptide to saponin treatment ratio 9:1” value is given as 17 % of control. Moreover, the “Feeding as a percent of control (%)” value in the test on Sitophilus oryzae [3] (setting [8]) was 18% and 30%. Also, in the test on Sitophilus oryzae [3] (saponin:peptide ratio 1:0, three days on treated wafers), the “EC90 (%) to reduce feeding by 90%” value is 1.5%.

On to `C[C@@H]1O[C@@H](O[C@H]2[C@H](O[C@H]3CC[C@@]4(C)[C@@H](CC[C@]5(C)[C@@H]4CC=C4[C@@H]6CC(C)(C)CC[C@]6(C(=O)O[C@@H]6O[C@H](CO[C@@H]7O[C@H](CO)[C@@H](O[C@@H]8O[C@@H](C)[C@H](O)[C@@H](O)[C@H]8O)[C@H](O)[C@H]7O)[C@@H](O)[C@H](O)[C@H]6O)CC[C@]45C)[C@]3(C)CO)OC[C@H](O)[C@@H]2O)[C@H](O)[C@H](O)[C@H]1O` [Hederacoside C, hederacoside C], for which the “Mean survival time (days ± SE)” value in the test with Sitophilus oryzae [1] (setting [5]) was 13.9 a days. Further, the “food consumption, initial treatment” value with Sitophilus oryzae [3] (1.6 mg/200 mg of flour) is 117 % of control. Moreover, in the test on Sitophilus oryzae [3] (setting [7]), the “food consumption, peptide to saponin treatment ratio 1:9” value is 58 % of control. In the test on Sitophilus oryzae [3], the “food consumption, peptide to saponin treatment ratio 1:1” value is 47 % of control; the “food consumption, peptide to saponin treatment ratio 9:1” value was 44 % of control; the “antifeedant activity (in words)” value is “inactive”; the “synergy with pea peptides (in words)” value was “clearly synergistic”. Besides, the “antifeedant activity (in words)” value in the test on Sitophilus oryzae [3] (listed as hederacoside C) was “no significant reduction in feeding”. In addition, the “Feeding as a percent of control (%)” value with Sitophilus oryzae [3] (setting [8]) is reported as 117%.

As for `Cc1occc(=O)c1O` [maltol, 3-hydroxy-2-methyl-4-pyrone], the “f.c. (food consumption)” value in the test on Sitophilus oryzae [3] (Table 4, 1.6 mg/200 mg of flour) is recorded as 110 % of control. In addition, in the test with Sitophilus oryzae [3], the “antifeedant activity (in words)” value was “inactive”.

On to `C[C@@H]1O[C@@H](O[C@H]2[C@H](O[C@H]3CC[C@@]4(C)[C@@H](CC[C@]5(C)[C@@H]4CC=C4[C@@H]6CC(C)(C)CC[C@]6(C(=O)O)CC[C@]45C)[C@]3(C)CO)OC[C@H](O)[C@@H]2O)[C@H](O)[C@H](O)[C@H]1O` [α-Hederin, α-hederin], for which the “food consumption, initial treatment” value in the test with Sitophilus oryzae [3] (1.6 mg/200 mg of flour) was 36 % of control. Besides, the “food consumption, peptide to saponin treatment ratio 1:9” value with Sitophilus oryzae [3] (setting [7]) is 26 % of control. In the test on Sitophilus oryzae [3], the “food consumption, peptide to saponin treatment ratio 1:1” value is 26 % of control and the “food consumption, peptide to saponin treatment ratio 9:1” value is given as 24 % of control. In the test with Sitophilus oryzae [3] (setting [8]), the “Feeding as a percent of control (%)” value is 36%.

As for `CC1(C)[C@@H](O[C@H]2O[C@H](C(=O)O)[C@@H](O)[C@H](O)[C@H]2O[C@@H]2O[C@H](C(=O)O)[C@@H](O)[C@H](O)[C@H]2O)CC[C@]2(C)[C@H]3C(=O)C=C4[C@@H]5C[C@@](C)(C(=O)O)CC[C@]5(C)CC[C@@]4(C)[C@]3(C)CC[C@@H]12` [Glycyrrhizic acid, glycyrrhizic acid], in the test with Sitophilus oryzae [3] (1.6 mg/200 mg of flour), the “food consumption, initial treatment” value is 96 % of control. In addition, the “food consumption, peptide to saponin treatment ratio 1:9” value in the test with Sitophilus oryzae [3] (setting [7]) is given as 39 % of control. For the same compound, in the test with Sitophilus oryzae [3], the “food consumption, peptide to saponin treatment ratio 1:1” value is 45 % of control; the “food consumption, peptide to saponin treatment ratio 9:1” value is 33 % of control; the “antifeedant activity (in words)” value is “inactive; also recorded: no significant reduction in feeding”; the “synergy with pea peptides (in words)” value is recorded as “clearly synergistic”. For the same compound, the “Feeding as a percent of control (%)” value in the test on Sitophilus oryzae [3] (setting [8]) is 96%.

Turning to `CCCCCCCCCCCCCCCC(=O)OC[C@@H](O)COP(=O)([O-])OCC[N+](C)(C)C` [L-16:0], the “food consumption in the rice weevil bioassay” value with Sitophilus oryzae [3] (1.6 mg/200 mg flour, relative to control) was 102%. Moreover, in the test with Sitophilus oryzae [3] (lysolecithin-saponin (soyasaponin I) mixtures, similar experiments, total dose 0.016-1.6 mg/200 mg of flour), the food consumption is 84-102%. The “food consumption, expressed as % of untreated control” value with Sitophilus oryzae [3] (mixtures of 90% lysolecithin and 10% peptides (AIEX YM3), total dose 0.016-1.6 mg/200 mg of flour) was 71-115%.

As to `CCCCCCCCCCCC(=O)OCCOCCOCCOCCOCCOCCOCCOCCOCCOCCOCCOCCOCCOCCOCCOCCOCCOCCOCCOCCOCC(OCCOCCOCCOCCOCCOCCOCCOCCOCCOCCOCCOCCOCCOCCOCCOCCOCCOCCOCCOCCO)C1OCC(OCCOCCOCCOCCOCCOCCOCCOCCOCCOCCOCCOCCOCCOCCOCCOCCOCCOCCOCCOCCO)C1OCCOCCOCCOCCOCCOCCOCCOCCOCCOCCOCCOCCOCCOCCOCCOCCOCCOCCOCCOCCO` (stereo not drawn) [Tween 20, polyoxyethylene(20)sorbitan monolaurate], in the test with Sitophilus oryzae [1] (setting [5]), the “Mean survival time (days ± SE)” value amounted to 13.7 a days. Besides, the “mortality / toxicity to the rice weevil (in words)” value in the test with Sitophilus oryzae [1] (used alone) is on record as “Neither Tween or dish soap were toxic”. The “Feeding as a percent of control (%)” value in the test on Sitophilus oryzae [3] (setting [8]) is listed as 106%.
